Experimental data as given in patent US9884041B2 (YONSEI […], INC., priority 2010, dated 2018).

Assays:
[1] = system: rats; settings: cited from earlier work
[2] = system: PPARγ2; assay: RT-PCR analysis of PPARγ2 gene expression in mouse liver tissues; format: in vivo, mice; settings: mRNA by RT-PCR, vs HFD, to levels similar for the ND
Excerpt: (§1) FIG. 8 represents the expression profiles of genes relating to lipogenesis in mice liver tissues. The left panel represents images of RT-PCR analysis results for C/EBPα, PPARγ2 and aP2, and the right panel represents relative expression levels of these genes. The data were normalized to GAPDH mRNA levels and expressed as relative values to those from ND mouse. The results are represented as mean±SEM (standard error) of values obtained from RNA sample of eight mice with three independent experiments. The characters above the bars indicate significant difference in dietary groups by one-way analysis of variance (ANOVA) test and Duncan's multiple range test (P<0.05).
(§2) After adding 1 mL of Trizol agent per 0.1 g of liver tissues, the mixture was homogenized and centrifuged at 12,000×g for 10 min at 4° C. The supernatant was transferred to a new tube and 200 μl of chloroform was added to the tube, followed by vortexing. The same procedure was repeated twice and then the supernatant was transferred to a new tube, followed by addition of isopropanol and the supernatant at 1:1 ratio. […] The RNA sample concentration was measured at a wavelength of 260 nm and 280 nm using a UV/VIS spectrophotometer (Beckman coulter, DU730) and the integrity of RNA sample was verified by agarose gel electrophoresis. […]

[3] = system: human; settings: human took 10 g of piperonal; cited from earlier work
[4] = system: C57BL/6J mice; assay: Body weight, food intake and visceral fat-pad weights of mice fed test diets (HFD-induced obesity); format: in vivo; settings: HFD with 0.05% piperonal, 10 weeks
Description: (§3) The obesity-inducing control diet used in the test was high-fat diet (HFD: 40% fat calorie, 17 g lard+3% corn oil/100 g diet). […] The normal diet (ND) was prepared under AIN-76 rodent diet (American Institute of Nutrition, Report of the American Institute of Nutrition ad hoc committee on standards for nutritional studies. J. Nutr. 107: 1340-1348, 1977) (see Table 1). Piperonal was purchased from Sigma-Aldrich.
(§4) 5-week-old male C57BL/6J mice (Orient, Korea) were accustomed to the laboratory environment for 1 week while feeding solid feed. Then, they were randomly divided into normal diet, high-fat diet and test groups and bred for a total of 10 weeks. The diet was given between 10 and 11 a.m. every day together with water. Food intake was measured every day and body weight was measured once a week. In order to avoid transient body weight increase after feed intake, body weight was measured 2 hours after removing the feed. After fasting the test animal for at least 12 hours and anesthetizing with diethyl ether, blood, liver and visceral fat (epididymal fat, perirenal fat, mesenteric fat and retroperitoneal fat) were taken and weighed after washing with 0.1 M PBS (pH 7.4). Blood taken from the abdominal aorta was centrifuged at 1000×g for 15 minutes for the separation of plasma.
The food efficiency ratio was calculated by dividing the total body weight gain during the experimental period (g) by the total food intake (g) (FIGS. 1 and 2).

[5] = system: patients; settings: sense of smell stimulated through nasal cannula during MRI for cancer diagnosis; cited from earlier work
[6] = system: cancinogenesis animal model; settings: in vivo; cited from earlier work
[7] = system: C57BL/6J mice; assay: Plasma lipid and glucose levels of mice fed test diets; format: in vivo; settings: HFD with 0.05% piperonal, 10 weeks
Description: as §3, §4
After 10 weeks of breeding, total cholesterol, HDL-cholesterol, triglyceride and glucose levels in the plasma and lipid levels in the liver tissue were measured as follows. Total cholesterol, HDL-cholesterol, triglyceride, free fatty acid and glucose levels in the plasma were measured twice for each using a commercially available kit (Bio Clinical System). LDL+VLDL cholesterol levels in the blood were calculated by subtracting HDL-cholesterol levels from the total cholesterol levels.

[8] = system: UCP3; assay: RT-PCR analysis of UCP3 gene expression in mouse visceral fat tissues; format: in vivo, mice; settings: mRNA by RT-PCR, normalized to GAPDH, to the similar level to the ND group
Excerpt: (§5) FIG. 7 represents the expression profiles of UCPs genes in the visceral fat tissues of mice. The left panel represents images of RT-PCR analysis results for UCP1 and UCP3, and the right panel represents relative expression levels of these genes. The data were normalized to GAPDH mRNA levels and expressed as relative values to those from ND mouse. The results are represented as mean±SEM (standard error) of values obtained from RNA sample of eight mice with three independent experiments. The characters above the bars indicate significant difference in dietary groups by one-way analysis of variance (ANOVA) test and Duncan's multiple range test (P<0.05).
as §2, with “visceral fat” for “liver”

[9] = system: rats; settings: feed containing 0.1% piperonal and 0.5% piperonal, 2 years; cited from earlier work
[10] = system: aP2; assay: RT-PCR analysis of aP2 gene expression in mouse liver tissues; format: in vivo, mice; settings: mRNA by RT-PCR, vs HFD, to levels similar for the ND
Excerpt: as §1, §2

[11] = system: C/EBPα; assay: RT-PCR analysis of C/EBPα gene expression in mouse liver tissues; format: in vivo, mice; settings: mRNA by RT-PCR, vs HFD, to levels similar for the ND
Excerpt: as §1, §2

[12] = system: UCP1; assay: RT-PCR analysis of UCP1 gene expression in mouse visceral fat tissues; format: in vivo, mice; settings: mRNA by RT-PCR, normalized to GAPDH, to the similar level to the ND group
Excerpt: as §5
as §2, with “visceral fat” for “liver”

[13] = system: TNF-α; assay: RT-PCR analysis of TNF-α gene expression in mouse liver tissues; format: in vivo, mice; settings: mRNA by RT-PCR
Excerpt: as §1, with “9” for “8”, “inflammation” for “lipogenesis”, “TNFα” for “C/EBPα, PPARγ2”, “IL-6,” for “aP2,”
as §2

[14] = system: C57BL/6J mice; assay: Liver weights, liver lipid levels and liver function indicators (ALT, AST) of mice fed test diets; format: in vivo; settings: HFD with 0.05% piperonal, 10 weeks
Description: as §3, §4
Lipids were extracted from the liver tissue according to Folch et al.'s method (Folch J et al., J Biol Chem. 226: 497-509 (1957)). After adding 1 mL of distilled water to 0.25 g of liver tissue, the liver tissue was homogenized using a Polytron homogenizer (IKA-Werke GmbH & Co., Ultra-Turrax, Staufen, Germany). After adding 5 mL of chloroform:methanol solution (2:1, v/v) to the homogenate and mixing well, the mixture was centrifuged at 1000×g for 10 minutes. After adding 2 mL of chloroform:methanol solution (2:1, v/v) again to the supernatant, the same procedure was repeated to completely separate the lipid components of the liver. After adding 3 mL of chloroform:methanol:0.05% CaCl2 (3:48:47, v/v/v) solution to the remaining pellets and mixing well for 1 minute, followed by centrifugation at 1000×g for 10 minutes, the resulting pellets were completely dried with nitrogen gas. The dried lipids were dissolved in 1 mL of methanol and then analyzed.
The same kit (Bio Clinical System) as that used for the plasma analysis was used to measure the triglyceride, cholesterol and free fatty acid levels of the liver tissue.
The activity of ALT (alanine aminotransferase) and AST (aspartate aminotransferase) used as liver function indicator were measured twice for each using a commercially available kit (Bio Clinical System, Korea).

[15] = system: IL-6; assay: RT-PCR analysis of IL-6 gene expression in mouse liver tissues; format: in vivo, mice; settings: mRNA by RT-PCR
Excerpt: as §1, with “9” for “8”, “inflammation” for “lipogenesis”, “TNFα” for “C/EBPα, PPARγ2”, “IL-6,” for “aP2,”
as §2

Structure (SMILES): O=Cc1ccc2c(c1)OCO2 [piperonal, 1,3-benzodioxole-5-carboxaldehyde]
- LD50 [1]: more than 2,700 mg/kg
- expression of PPARγ2 gene [2]: significantly decreased
- toxicity in human [3]: no toxicity
- decrease of body weight gain as compared to HFD [4]: 19%
- reduced weight of epididymal fat-pad as compared to HFD [4]: 11%
- reduced weight of mesenteric fat-pad as compared to HFD [4]: 20%
- reduced weight of perirenal fat-pad as compared to HFD [4]: 35%
- reduced weight of retroperitoneal fat-pad as compared to HFD [4]: 8%
- reduction of total visceral fat weight, POD group vs HFD group ([4]; P<0.001): 15%
- daily food intake ([4]; vs HFD): no significant change
- anxiety of patients during MRI [5]: relief from anxiety
- effect in carcinogenesis animal model [6]: cancer inhibitory effect
- lower atherogenic indices as compared to HFD group [7]: 17%
- lower plasma level of free fatty acid as compared to HFD group [7]: 17%
- lower plasma level of total cholesterol as compared to HFD group [7]: 14%
- lower plasma level of triglyceride as compared to HFD group [7]: 21%
- reduction of fasting blood sugar level as compared to HFD [7]: 27%
- lower plasma level of LDL+VLDL cholesterol as compared to HFD group ([7]; total cholesterol minus HDL-cholesterol): 18%
- HFD-induced decrease in expression of UCP3 gene [8]: significantly reversed
- toxicity in rats [9]: no toxicity
- expression of aP2 gene [10]: significantly decreased
- expression of C/EBPα gene [11]: significantly decreased
- HFD-induced decrease in expression of UCP1 gene [12]: significantly reversed
- HFD-induced elevation in the expression of TNF-α [13]: significantly reversed
- decrease of absolute organ weight of liver as compared to HFD [14]: 23%
- decreased level of cholesterol in liver tissue as compared to HFD [14]: 39%
- decreased level of free fatty acid in liver tissue as compared to HFD [14]: 27%
- decreased level of triglyceride in liver tissue as compared to HFD [14]: 13%
- decreased plasma activity of ALT as compared to HFD group [14]: 27%
- decreased plasma activity of AST as compared to HFD group [14]: 15%
- HFD-induced elevation in the expression of IL-6 [15]: significantly reversed
